Assay results from patent US9409952B2, “Peptide-compound cyclization method” (Chugai Seiyaku Kabushiki Kaisha, priority 2011, dated 2016).
Like-named read-outs stand apart in the source and are kept apart here. Starred links: 1 amine or outer side, 2 acyl side, 3 side chain; linkers in the order of their positions; H or OH if unused. Positions of bridges follow the written chain, without caps; N, C: chain ends. Non-standard residues stand in square brackets, D forms with d. Residues, ends and D or L forms follow the SMILES beside them. *: point of attachment. Tyr(3-F) = N[C@@H](Cc1ccc(O)c(F)c1)C(=O)O; NMeF = CN[C@@H](Cc1ccccc1)C(=O)O; NMeGABA = CN(CCCC(=O)[*:2])[*:1]; NMeI = CC[C@H](C)[C@H](NC)C(=O)O; NMeβAla = CN(CCC(=O)[*:2])[*:1]; NMeL = CN[C@@H](CC(C)C)C(=O)O; NMeV = CN[C@H](C(=O)O)C(C)C; NMeA = CN[C@@H](C)C(=O)O; Piperidide = C1CCN(*)CC1; dNMeA = CN[C@H](C)C(=O)O; β3hA = C[C@H](N)CC(=O)O; Sar = CNCC(=O)O; tBu = CC(C)(C)*

Experiments:
[1] = Metabolic stability in human hepatic microsome; format: in vitro ADME; settings: microsomes
[2] = PAMPA (parallel artificial membrane permeability assay); format: in vitro ADME; settings: PAMPA
In short: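 Artificial membrane was 10% (w/v) egg lecithin plus 0.5% (w/v) cholesterol in dodecane on a PVDF filter. A 10 mM DMSO stock was added at 0.5% (v/v) to donor buffer (50 mM MOPSO, pH 6.5, 5.0% glycocholic acid). After 18 h at 37 °C, LC/MS or LC/UV gave donor and acceptor levels for Pe.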

[3] = pH 7.4, human hepatic microsome, NADPH(+), read-out: CL NADPH(+)
[4] = membrane permeation rate (Pe), 50 mM MOPSO buffer pH 6.5 with 5.0% glycocholic acid, 37° C., 18 hours, read-out: iPAMPA Pe

CC(C)C[C@H]1C(=O)N(C)[C@@H](Cc2ccccc2)C(=O)N[C@@H]([C@@H](C)O)C(=O)N(C)[C@@H](C)C(=O)N(C)[C@@H](CC(C)C)C(=O)N(C)[C@@H](CC(C)C)C(=O)N[C@H](C(=O)N2CCCCC2)CC(=O)N(C)CCCC(=O)N[C@@H](COC(C)(C)C)C(=O)N(C)CC(=O)N1C [DP-122] ([NMeGABA]S(tBu)[Sar][NMeL][NMeF]T[NMeA][NMeL][NMeL]D-Piperidide; lactam N-10)
microsomal CLint at 1 uM ([1]; human, pH 7.4, CL NADPH(+)): 169 µL/min/mg | Papp at 18 hours, 50 µM ([2]; pH 6.5): 32 ×10⁻⁶ cm/s

CC[C@H](C)[C@H]1C(=O)N[C@@H](CC(C)C)C(=O)N(C)[C@@H](CC(C)C)C(=O)N[C@H](C(=O)N2CCCCC2)CC(=O)N(C)CC(=O)N(C)[C@@H](CC(C)C)C(=O)N[C@@H]([C@@H](C)O)C(=O)N(C)[C@@H](C)C(=O)N[C@@H](C)C(=O)N(C)[C@@H](Cc2ccccc2)C(=O)N(C)[C@@H](Cc2ccccc2)C(=O)N1C [DP-247] ([Sar][NMeL]T[NMeA]A[NMeF][NMeF][NMeI]L[NMeL]D-Piperidide; lactam N-11)
microsomal CLint at 1 uM [1, 3]: 48 µL/min/mg | Papp at 18 hours, 50 µM [2, 4]: 28 ×10⁻⁶ cm/s

CC(C)C[C@H]1C(=O)N[C@@H]([C@@H](C)O)C(=O)N(C)[C@@H](C)C(=O)N[C@H](C(=O)N2CCCCC2)CC(=O)N(C)[C@@H](C)C(=O)N[C@@H](C)C(=O)N(C)[C@@H](Cc2ccccc2)C(=O)N(C)[C@@H](CC(C)C)C(=O)N[C@@H](Cc2ccccc2)C(=O)N1C [DP-150] ([NMeA]A[NMeF][NMeL]F[NMeL]T[NMeA]D-Piperidide; lactam N-9)
microsomal CLint at 1 uM [1, 3]: 701 µL/min/mg | Papp at 18 hours, 50 µM [2, 4]: 33 ×10⁻⁶ cm/s

CC[C@H](C)[C@H]1C(=O)N[C@@H](Cc2ccccc2)C(=O)N[C@H](C(=O)N2CCCCC2)CC(=O)N(C)CCC(=O)N(C)[C@@H](C(C)C)C(=O)N[C@@H](Cc2ccccc2)C(=O)N[C@@H](CC(C)C)C(=O)N(C)[C@@H](C)C(=O)N[C@@H]([C@@H](C)O)C(=O)N[C@@H](CC(C)C)C(=O)N(C)[C@@H](CC(C)C)C(=O)NCC(=O)N1C [DP-221] ([NMeβAla][NMeV]FL[NMeA]TL[NMeL]G[NMeI]FD-Piperidide; lactam N-12)
microsomal CLint at 1 uM [1, 3]: 75 µL/min/mg | Papp at 18 hours, 50 µM [2, 4]: 31 ×10⁻⁶ cm/s

CC(C)C[C@H]1C(=O)N[C@@H](COC(C)(C)C)C(=O)N[C@H](C(=O)N2CCCCC2)CC(=O)N[C@H](C(C)C)C(=O)N(C)[C@@H](Cc2ccccc2)C(=O)N(C)[C@@H](C)C(=O)N(C)[C@@H](CC(C)C)C(=O)N[C@@H]([C@@H](C)O)C(=O)N(C)[C@@H](C)C(=O)N1C [DP-266] ([dV][NMeF][NMeA][NMeL]T[NMeA][NMeL]S(tBu)D-Piperidide; lactam N-9)
microsomal CLint at 1 uM [1, 3]: 134 µL/min/mg | Papp at 18 hours, 50 µM [2, 4]: 43 ×10⁻⁶ cm/s

CC[C@H](C)[C@H]1C(=O)N[C@@H](COC(C)(C)C)C(=O)N[C@@H](C)CC(=O)N(C)[C@@H](C)C(=O)N(C)[C@@H](Cc2ccccc2)C(=O)N(C)CC(=O)N(C)[C@@H](CC(C)C)C(=O)N[C@@H]([C@@H](C)O)C(=O)N(C)[C@@H](C)C(=O)N(C)[C@@H](CC(C)C)C(=O)N1C [DP-779] (cyclo([NMeA][NMeF][Sar][NMeL]T[NMeA][NMeL][NMeI]S(tBu)[β3hA]))
microsomal CLint at 1 uM ([1]; human, pH 7.4, CL NADPH(+)): 78 µL/min/mg | Papp at 18 hours, 50 µM ([2]; pH 6.5): 37 ×10⁻⁶ cm/s

CC(C)C[C@H]1C(=O)N(C)[C@@H](Cc2ccccc2)C(=O)N[C@@H]([C@@H](C)O)C(=O)N(C)[C@@H](C)C(=O)N(C)[C@@H](CC(C)C)C(=O)N[C@@H](C(C)C)C(=O)N(C)[C@@H](CC(C)C)C(=O)N[C@H](C(=O)N(C)[C@@H](Cc2ccccc2)C(=O)N[C@@H](C)C(=O)N2CCCCC2)CC(=O)N(C)CC(=O)N1C [DP-202] ([Sar][NMeL][NMeF]T[NMeA][NMeL]V[NMeL]D[NMeF]A-Piperidide; lactam N-9)
microsomal CLint at 1 uM [1, 3]: 134 µL/min/mg | Papp at 18 hours, 50 µM [2, 4]: 55 ×10⁻⁶ cm/s

CC(C)C[C@@H]1NC(=O)[C@H](CC(C)C)N(C)C(=O)[C@H](C)N(C)C(=O)[C@@H](C(C)C)NC(=O)C[C@@H](C(=O)N2CCCCC2)NC(=O)[C@H]([C@@H](C)O)NC(=O)[C@H](C)N(C)C(=O)[C@H](C)N(C)C(=O)[C@H](CC(C)C)N(C)C(=O)[C@H](Cc2ccc(O)c(F)c2)NC(=O)[C@H](Cc2ccccc2)N(C)C1=O [DP-619] ([dV][NMeA][NMeL]L[NMeF][Tyr(3-F)][NMeL][NMeA][NMeA]TD-Piperidide; lactam N-11)
microsomal CLint at 1 uM [1, 3]: 29 µL/min/mg | Papp at 18 hours, 50 µM [2, 4]: 12 ×10⁻⁶ cm/s

CC[C@H](C)[C@@H]1NC(=O)[C@H](Cc2ccccc2)N(C)C(=O)[C@H]([C@@H](C)O)NC(=O)[C@H](C(C)C)N(C)C(=O)[C@H](CC(C)C)NC(=O)[C@H](CC(C)C)N(C)C(=O)CCN(C)C(=O)C[C@@H](C(=O)N2CCCCC2)NC(=O)[C@H](C)NC(=O)[C@H](C)N(C)C(=O)[C@H](Cc2ccccc2)NC1=O [DP-238] ([NMeβAla][NMeL]L[NMeV]T[NMeF]IF[NMeA]AD-Piperidide; lactam N-11)
microsomal CLint at 1 uM [1, 3]: 129 µL/min/mg | Papp at 18 hours, 50 µM [2, 4]: 19 ×10⁻⁶ cm/s

CC[C@H](C)[C@@H]1NC(=O)[C@H](C)N(C)C(=O)[C@H]([C@@H](C)O)NC(=O)[C@H](C(C)C)N(C)C(=O)[C@H](CC(C)C)NC(=O)[C@H](CC(C)C)N(C)C(=O)[C@@H](C)N(C)C(=O)C[C@H](C)NC(=O)[C@H](Cc2ccccc2)NC(=O)[C@H](C)NC(=O)[C@H](Cc2ccccc2)N(C)C1=O [DP-769] (cyclo(AF[β3hA][dNMeA][NMeL]L[NMeV]T[NMeA]I[NMeF]))
microsomal CLint at 1 uM ([1]; human, pH 7.4, CL NADPH(+)): 78 µL/min/mg | Papp at 18 hours, 50 µM ([2]; pH 6.5): 53 ×10⁻⁶ cm/s

CC[C@H](C)[C@H]1C(=O)N[C@@H]([C@@H](C)O)C(=O)N[C@@H](Cc2ccccc2)C(=O)N2CCC[C@H]2C(=O)NCC(=O)N(C)[C@@H](CC(C)C)C(=O)N[C@H](C(=O)N2CCCCC2)CC(=O)N[C@H](C)C(=O)N[C@@H](Cc2ccccc2)C(=O)N(C)[C@@H](CC(C)C)C(=O)N[C@@H](CC(C)C)C(=O)N1C [DP-227] ([dA]F[NMeL]L[NMeI]TFPG[NMeL]D-Piperidide; lactam N-11)
microsomal CLint at 1 uM ([1]; human, pH 7.4, CL NADPH(+)): 141 µL/min/mg | Papp at 18 hours, 50 µM ([2]; pH 6.5): 38 ×10⁻⁶ cm/s

CC(C)C[C@H]1C(=O)N(C)[C@@H](C)C(=O)N[C@H](C(=O)N(C)[C@@H](Cc2ccccc2)C(=O)N[C@@H](C)C(=O)N2CCCCC2)CC(=O)N(C)CC(=O)N[C@@H](C(C)C)C(=O)N(C)[C@@H](Cc2ccccc2)C(=O)N(C)[C@@H](CC(C)C)C(=O)N[C@@H]([C@@H](C)O)C(=O)N(C)CC(=O)N1C [DP-388] ([Sar]V[NMeF][NMeL]T[Sar][NMeL][NMeA]D[NMeF]A-Piperidide; lactam N-9)
microsomal CLint at 1 uM [1, 3]: 41 µL/min/mg | Papp at 18 hours, 50 µM [2, 4]: 11 ×10⁻⁶ cm/s

CC[C@H](C)[C@@H]1NC(=O)[C@H](C)N(C)C(=O)[C@H]([C@@H](C)O)NC(=O)[C@H](Cc2ccccc2)N(C)C(=O)[C@H](CC(C)C)N(C)C(=O)CCCN(C)C(=O)C[C@@H](C(=O)N(C)[C@@H](Cc2ccccc2)C(=O)N[C@@H](C)C(=O)N2CCCCC2)NC(=O)[C@H](C(C)C)N(C)C(=O)[C@H](CC(C)C)N(C)C1=O [DP-384] ([NMeGABA][NMeL][NMeF]T[NMeA]I[NMeL][NMeV]D[NMeF]A-Piperidide; lactam N-9)
microsomal CLint at 1 uM [1, 3]: 214 µL/min/mg | Papp at 18 hours, 50 µM [2, 4]: 26 ×10⁻⁶ cm/s

CC(C)C[C@@H]1NC(=O)[C@H](Cc2ccccc2)N(C)C(=O)[C@@H](C(C)C)NC(=O)C[C@@H](C(=O)N2CCCCC2)NC(=O)[C@H](Cc2ccccc2)NC(=O)[C@H](CC(C)C)N(C)C(=O)[C@H]([C@@H](C)O)NC(=O)[C@H](CC(C)C)N(C)C1=O [DP-703] ([dV][NMeF]L[NMeL]T[NMeL]FD-Piperidide; lactam N-8)
microsomal CLint at 1 uM [1, 3]: 222 µL/min/mg | Papp at 18 hours, 50 µM [2, 4]: 34 ×10⁻⁶ cm/s
